Test results taken from publication PMC11061149, “Protein mimetic 2D FAST rescues alpha synuclein aggregation mediated early and post disease Parkinson’s phenotypes” (Nature Communications, 2024).
Where “and” joins values, the source holds several entries; their conditions need not be identical. Equal entries are not always repeated.

Assays:
[1] = molecular target: T1, αS (Homo sapiens, UniProt P37840); experiment: Isothermal titration calorimetry (ITC); assay type: binding; details: ligand titrated into 15 μM αS in PBS; read-out: dissociation constant (Kd)
T1 construct: made in house; host or cells: E. coli BL21(DE3)
Description: The ITC experiments were performed in a NANO-ITC (TA Instruments, New Castle, DE). For each ITC experiment, a solution of 250 μM NS132 in PBS was serially titrated (2 μL injections […] via rotary syringe, stirring speed at 300 rpm) into a sample cell containing 350 μL of 15 μM αS in the same buffer conditions at 300 sec intervals. The heat associated with each injection was calculated by integrating each heat burst curve using NanoAnalyze software (TA Instruments, New Castle, DE). The associated heat for each injection of NS132 in αS solution was corrected by subtracting heat resulted from the titration of NS132 into buffer (in 1 × PBS) under identical conditions. The corrected heat values were plotted as a function of the molar ratio of NS132 to αS and the plot was fitted using a one binding site independent model available in NanoAnalyze software. The fitting was carried out using 10,000 iterations in the software without any data constraints during the fitting. The ITC titrations were conducted in triplicate and the reported thermodynamic parameters were calculated as an average of three independent experiments.

[2] = test system: HEK293 cells stably expressing αS-A53T-YFP; experiment: HEK cells transfected with αS aggregated with or without ligand: inclusions (ProteoStat dye, confocal); assay type: cell-based, human
Description: The aggregation of endogenous monomeric αS-A53T-YFP into fibers can be detected by the intracellular fluorescent puncta (Fig. 3a, + αS). A solution of 100 μM αS was aggregated in the absence and presence of NS132 at an equimolar ratio for four days. The resulting solutions of αS fibers (5 μM in monomeric αS, ±NS132) were introduced to HEK cells in the presence of Lipofectamine 3000 for 24 h. In contrast to the control (no fibers), we observed a significant number of fluorescent inclusions in the presence of αS fibers (Fig. 3a, white arrows, +αS), which was a consequence of the templating of endogenous monomeric αS-A53T-YFP by the exogenously added αS fibers. […] Moreover, we observed the colocalization of an adaptor protein, p62, in the aggresome of αS inclusions in HEK cells (Fig. 3b, +αS, red),[51]–[54]. […] The autophagy machinery regulates many vital cellular processes and its impairment due to αS aggregation can lead to PD and other neurodegenerative disorders[51]–[54]. […] We also quantified the inclusions (αS-A53T-YFP) using a ProteoStat dye-based high throughput 96-well plate reader-based assay recently developed in our lab[24]. The ProteoStat dye-based intensity of HEK cells treated with αS fibers was ~4-5 fold higher than the control (no fibers) (Fig. 3c, +αS, black). […] Therefore, we used HEK cells to test the cytotoxicity of the aggregated solution of αS in the absence and presence of NS132 (Fig. 3d). The viability of HEK cells was measured using the (3-(4,5-dimethylthiazol-2-yl)-2,5-diphenyltetrazolium bromide) (MTT) reduction based assay.
The Lipofectamine solution was made fresh for each transfection to avoid possible denaturation of reagents in a stored stock solution. For each transfection protocol, the total volume of lipofectamine solution required is equivalent to 30% of the total volume of αS/lipofectamine solution needed. […]
This assay was performed based on a previous protocol with slight modifications. […] The resulting cell pellets were then homogenized, transferred into an autoclaved 1.7 mL microcentrifuge tube, and counted to normalize the data. […]

Kd [1]: 1810 ± 330 nM
SMILES: Cc1ccc(NC(=O)c2ccc(NC(=O)c3ccc([N+](=O)[O-])c(NCCc4c[nH]c5ccccc45)n3)c(NCC3CCCCC3)n2)c(OCC(=O)O)n1 [NS132]
intracellular αS-A53T-YFP inclusions (confocal), in words ([2]; HEK293 cells transfected with αS aggregated in the presence of NS132): significant decrease | ProteoStat intensity versus control (no fibers), in words ([2]; HEK cells + 5 μM αS aggregated with equimolar NS132): did not observe a significant difference | ProteoStat dye intensity (raw), individual experiments ([2]; HEK cells + 5 μM αS fibers aggregated with equimolar NS132, 24 h): 538 and 599 and 420 and 486 and 619 and 476 and 665 and 696 and 519 and 621 and 647 and 693
